Measurements as given in patent US20050148495A1, “Methods and materials including for treating acne” (priority 2003, published 2005).
Like-named read-outs stand apart in the source and are kept apart here. Non-standard residues stand in square brackets, D forms with d. Residues, ends and D or L forms follow the SMILES beside them. d1Nal = N[C@H](Cc1cccc2ccccc12)C(=O)O

Key:
[1] = system: P. acnes strain ATCC 6919; test: Kill curves / kill kinetics; assay type: cell-based, Propionibacterium acnes
Procedure: Kill curves were generated by incubating P. acnes strain ATCC 6919 with formulation buffer solutions of XMP.629 or other antibiotics at concentrations of […]. Samples were removed and plated at the indicated time periods. After incubation, colonies were counted and the kill kinetics determined for each drug.
For example, at a higher concentration of 4 μg/mL, a rapid reduction of viable cells in 8 hours to undetectable levels was observed. […] In additional kill curve studies against P. acnes, XMP.629 was bactericidal within 6 hours of exposure.

P. acnes (ATCC 6919) = test: Post-antibiotic effect (PAE) study; assay type: cell-based, Propionibacterium acnes
Procedure: Post-antibiotic effect (PAE) studies with XMP.629 were conducted according to the procedure described by Craig, W. and S. Gudmundsson, “Postantibiotic Effect,” p. 296, In: Lorian, V. (ed.) Antibiotics in Laboratory Medicine, 4th ed. The post antibiotic effect measures the duration that an antibiotic affects target organisms after contact with the bacteria. In this study, an initial concentration of 5×10^6 CFU/mL P. acnes (ATCC 6919) and 1 μg/mL were incubated for 15, 30, or 60 minutes and then diluted 100-fold in BHI. The treated organisms and matched untreated controls were incubated for […]. Samples were taken and counted at hourly intervals. Recovery was determined by plate counts over time.
The postantibiotic value is the difference in time between the controls and treated cultures to increase 1 log10. Because of the long generation time (slow growth) of the organism, the recovery time was unusually long, >12 hours. This may have influenced the results as typical assays are completed within 5-6 hours.

[2] = system: intact and abraded skin of New Zealand White rabbits; test: Rabbit primary skin irritation test (Draize); assay type: in vivo; conditions: 4 hour exposure
Procedure: XMP.629 was evaluated for any potential dermal irritant effects in the rabbit primary skin irritation test for this dermal irritation study, XMP.629 was tested on intact and abraded skin in three New Zealand White rabbits. All animals received 0.5 mL of XMP.629 on each intact and abraded dorsal skin application site. This was accomplished by placing a gauze patch directly on the skin of each application site and saturating the patch with 0.5 mL of the XMP.629 solution. The application sites were then wrapped with gauze bandaging and non-irritating semi-occlusive tape. Elizabethan collars were then applied for the 4 hour exposure period. At the end of the 4 hour exposure period, the collars and wrappings were removed and any residual XMP.629 removed. The test sites were evaluated using the standard Draize scoring system (Draize et al., 1944, J. Pharmacol, Exp. Ther. 82: 377-390) for erythema and edema within 30 to 60 minutes and 24, 48, and 72 hours following patch removal.

in vivo = conditions: both, minipig, plasma, iv; for half-life: 0.05 or 2 mg/kg short IV infusion
[3] = system: CD [Crl:CD (SD)IGS BR] rats; test: Rat subchronic toxicity test, subcutaneous, 30 days; assay type: in vivo
Procedure: XMP.629 was evaluated for potential subchronic dose toxicity after at least 30 consecutive days of administration to CD®[CrI: CD® (SD)IGS BR] rats. This study consisted of four main study groups, each containing ten rats/sex/group, and four toxicokinetic (TK) groups each containing six rats/sex/group. Three of the four main study and TK groups received XMP.629 by bolus subcutaneous injection at dose levels of 0.3, 1.0, and 3.0 mg/kg/day and at a dose volume of 3.0 mL/kg. One main study and TK group each served as control groups and received a vehicle (saline/sodium acetate buffer, pH 6.0) at the same dose volume. The TK groups were used for the assessment of plasma XMP.629 concentrations and to evaluate potential effects from repeat-dose administration of XMP.629 on antibody formation in a standardized assay. Blood was collected for plasma analysis on Days 1 and 28. […]
All rats were observed twice daily for morbidity, mortality, injury, and availability of food and water. Body weights were measured pretest and weekly for all rats and observations for clinical signs and measurements for food consumption were conducted weekly during the course of the study on main study rats. […] At the end of the treatment period for the main study rats, various hematology, clinical chemistry, and urinalysis parameters were evaluated. […]

[4] = parameters: decrease of plasma levels within the first 12 hours: dose or concentration left out as unconfirmed; conditions: for T1/2α / T1/2β / T1/2γ / T1/4 average / Vc: Sinclair mini-pig
[5] = 0.05 mg/kg XMP.629 acetate short IV infusion
[6] = 0.2 mg/kg XMP.629 acetate short IV infusion

Compound: CC(C)C[C@@H](NC(=O)[C@H](N)CCCCN)C(=O)N[C@H](Cc1ccccc1)C(=O)N[C@H](CCCNC(=N)N)C(=O)N[C@H](Cc1cccc2ccccc12)C(=O)N[C@H](CCC(N)=O)C(=O)N[C@H](C)C(=O)N[C@H](CCCCN)C(=O)N[C@H](Cc1cccc2ccccc12)C(N)=O [XMP.629, NH2-lys-leu-phe-arg-(3-(1-naphthyl)-ala)-gln-ala-lys-(3-(1-naphthyl)-ala)-CONH2] (H-[dK][dL][dF][dR][d1Nal][dQ][dA][dK][d1Nal]-NH2)
- time to reduction of viable cells to undetectable levels ([1]; 4 μg/mL): 8 h
- exposure time until bactericidal ([1]; additional kill curve studies against P. acnes): ≤ 6 h
- culture at 19 hours ([1]; all concentrations tested): no detected organisms
- contact time to kill the microorganisms ([1]; depending on dose): up to 10 hours
- PAE value (P. acnes (ATCC 6919); 1 μg/mL, contact 30 or 60 minutes, accurate value could not be assigned): ≥ 12 h
- recovery of affected cells (P. acnes (ATCC 6919); exposure to 0.5 to 2.0 MBCs for 15 minutes): did not recover, even after 24 hours of incubation
- duration of continuing inhibitory, but not lethal, effect after contact (P. acnes (ATCC 6919); residence time greater than 15 minutes): more than 5 hours
- dermal irritation ([2]; abraded skin): only mildly irritating
- dermal irritation ([2]; intact skin): not irritating
- Vd (in vivo; Sinclair mini-pig): 0.067 to 0.102 L/kg
- clearance (in vivo; Sinclair mini-pig): 1.75 to 2.6 mL/min/kg
- Vd (in vivo; Sinclair mini-pig, 0.05 mg/kg): 1.79 L/kg
- Vd (in vivo; Sinclair mini-pig, 0.2 mg/kg): 0.956 L/kg
- half-life (in vivo; Sinclair mini-pig, beta half-life): 1 to 1.3 h
- half-life (in vivo; Sinclair mini-pig, initial half-life): 0.03 to 0.9 h
- half-life (in vivo; Sinclair mini-pig, terminal half-life): ~15 h
- MRT (in vivo; Sinclair, 0.05 mg/kg): 11.3 h
- clearance (in vivo; Sinclair, 0.05 mg/kg): 2.59 mL/min/kg
- MRT (in vivo; Sinclair, 0.2 mg/kg): 7.41 h
- clearance (in vivo; Sinclair, 0.2 mg/kg): 1.74 mL/min/kg
- volume of the central compartment (0.05 mg/kg dose): 203.2 mL/kg
- decrease of plasma concentrations within 4 hours of dosing (intravenous): approximately 100 fold
- Minimum Inhibitory Concentrations (Streptococcus pneumoniae; Streptococcus pneumoniae 6303): 8.00 µg/mL
- Minimum Inhibitory Concentrations (Streptococcus pneumoniae; Streptococcus pneumoniae 10031): 8.00 µg/mL
- Minimum Inhibitory Concentrations (Streptococcus pneumoniae; Streptococcus pneumoniae 35088): 2.00 µg/mL
- main finding ([3]; 0.3, 1.0, and 3.0 mg/kg/day subcutaneous for 30 days): injection site lesions
- no-observed-effect level (NOEL) for systemic effects ([3]; subcutaneous, 30 days): greater than 3.0 mg/kg/day
- T1/2α [4, 5]: 5.46 min
- T1/2β [4, 5]: 1.28 h
- T1/2γ [4, 5]: 15.0 h
- T1/4 average [4, 5]: 0.36 h
- Vc [4, 5]: 0.0674 L/kg
- T1/2α [4, 6]: 1.86 min
- T1/2β [4, 6]: 1.03 h
- T1/2γ [4, 6]: 15.4 h
- T1/4 average [4, 6]: 0.58 h
- Vc [4, 6]: 0.1018 L/kg
- decrease of plasma levels within the first 12 hours ([4]; short IV infusion): 100 fold
- Minimum Inhibitory Concentrations (Pseudomonas aeruginosa; Pseudomonas aeruginosa 9027): 8.00 µg/mL
- Minimum Inhibitory Concentrations (Pseudomonas aeruginosa; Pseudomonas aeruginosa 19660): 8.00 µg/mL
- Minimum Inhibitory Concentrations (Pseudomonas aeruginosa; Pseudomonas aeruginosa 27853): 4.00 µg/mL
- Minimum Inhibitory Concentrations (Pseudomonas aeruginosa; Pseudomonas aeruginosa XS-65 (MDR)): 8.00 µg/mL
